*1 amine or outer side, *2 acyl side, *3 side chain or, on linkers, in order; H or OH if unused. Where a SMILES comes first, the peptide text is derived from it. [ ]: non-standard residue; d: D form. The star is where a group is joined. X1 = C[C@H](CP(=O)(O)[C@H](Cc1ccccc1)N[*:1])C(=O)[*:2]; Cbz = O=C(OCc1ccccc1)*
How the values were obtained:
[1] = biological target: recombinant PCP (procollagen C-proteinase) (Homo sapiens, UniProt P13497); settings: 100 nM inhibitor; FIG. 1
human meprin = settings: concentrations of up to 100 nM; FIG. 3
Protocol: The meprin activity test was carried out in a completely analogous manner to the in-vitro assay for measuring PCP activity. Instead of the recombinant PCP, use was made of human meprin, which also transforms the fluorescence-labeled decapeptide.

Sequence of recombinant PCP (procollagen C-proteinase) (P13497 121-986, species assumed): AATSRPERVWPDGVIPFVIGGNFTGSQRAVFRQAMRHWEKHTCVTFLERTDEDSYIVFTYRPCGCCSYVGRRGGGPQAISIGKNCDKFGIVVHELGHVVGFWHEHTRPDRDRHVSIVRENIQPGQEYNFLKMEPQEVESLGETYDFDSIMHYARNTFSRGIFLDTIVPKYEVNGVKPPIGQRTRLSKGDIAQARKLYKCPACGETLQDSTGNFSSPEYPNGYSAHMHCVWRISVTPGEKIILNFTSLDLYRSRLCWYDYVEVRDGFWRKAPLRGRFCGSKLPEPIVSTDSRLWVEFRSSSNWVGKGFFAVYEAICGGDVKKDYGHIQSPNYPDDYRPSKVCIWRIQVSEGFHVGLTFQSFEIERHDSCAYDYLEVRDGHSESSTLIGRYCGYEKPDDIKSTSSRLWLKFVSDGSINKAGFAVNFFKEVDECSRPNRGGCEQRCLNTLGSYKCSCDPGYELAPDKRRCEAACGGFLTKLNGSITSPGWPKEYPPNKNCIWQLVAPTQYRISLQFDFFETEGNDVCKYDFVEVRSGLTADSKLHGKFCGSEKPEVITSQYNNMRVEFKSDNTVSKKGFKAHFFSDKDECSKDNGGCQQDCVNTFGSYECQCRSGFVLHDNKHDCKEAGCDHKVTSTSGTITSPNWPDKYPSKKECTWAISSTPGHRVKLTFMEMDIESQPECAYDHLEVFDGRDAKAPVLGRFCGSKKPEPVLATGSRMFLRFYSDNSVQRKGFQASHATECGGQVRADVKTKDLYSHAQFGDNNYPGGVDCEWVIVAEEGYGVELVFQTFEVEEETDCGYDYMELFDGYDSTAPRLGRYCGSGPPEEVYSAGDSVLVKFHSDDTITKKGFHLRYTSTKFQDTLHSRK

COC(=O)[C@H](CC(C)C)NC(=O)[C@@H]1CCCN1C(=O)[C@H](C)CP(=O)(O)[C@H](Cc1ccccc1)NC(=O)[C@H](CCCCN)NC(=O)[C@@H]1CCCN1C(=O)OCc1ccccc1 [Z-PKF(PC)APL-O-Me] (Cbz-PK[X1]PL-OMe)
inhibition of PCP enzyme activity (transformation of the DABCYL-EDANS-decapeptide substrate as a function of time) [1]: almost completely inhibited
inhibition of meprin in its transformation of the fluorescence-labeled peptide (human meprin): only slightly inhibited

— patent publication US6750202B1, “Phosphinate peptide analogs for the treatment of fibrotic disorders” (priority 1998, dated 2004)
